Test results published in patent publication EP4563571A1, “PRMT5 INHIBITORS” (Beijing Earthwise Technology Co., Ltd., priority 2022, dated 2024).
Read-outs that look alike come from different tables or passages of the source.

Legend:
[1] = tested on: HCT116^MTAP Deletion cells; assay: Anti-proliferation assay on cells (Cell-Titer Glo, 10 days); assay type: cell-based
Method in brief: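 HCT116^MTAP Deletion cells seeded at 50 cells/well and exposed to 10-point 3-fold compound dilutions in duplicate (0.1% DMSO) for 10 days at 37 °C. Viability read by CellTiter-Glo luminescence; IC50 derived from GI50 curves of concentration versus inhibition.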

HCT116 cells = assay: as above; assay type: cell-based; details: for Selectivity multiple of HCT116^MTAP WT GI50/ HCT116^MTAP Deletion GI50: ratio of GI50 values
Protocol: Assay example 1: Method of anti-proliferation assay on cells
HCT116^MTAP Deletion cells were from Pharmaron (China); HCT116 cells were from ATCC; McCoy's 5A medium was purchased from Invitrogen (USA); penicillin-streptomycin and fetal bovine serum were purchased from Gibco (USA); a 384-well plate was purchased from PerkinElmer (USA); and Cell-Titer Glo reagent was purchased from Promega (USA).
Compound dissolution: All the compounds were dissolved in dimethyl sulfoxide (DMSO) and then stored. The compounds were stored at room temperature in a dry condition for 3 months for short term storage or at -20 °C for long term storage.
Cell culture and passaging
The cells were cultured strictly in accordance with ATCC requirements. The cell culture medium (McCoy's 5A medium + 10% fetal bovine serum + 1% penicillin + streptomycin) was transferred to a 15 mL centrifuge tube and centrifuged at 1000 rpm for 5 min. The supernatant was removed. The cells were resuspended with complete culture medium, inoculated into a culture dish at the required density, and cultured in an incubator at 37 °C, 95% humid air, and 5% carbon dioxide. The culture medium was replenished or the cells were passaged every 2-3 days depending on the cell growth condition.
Cell proliferation activity assay
When the confluency of cells in the culture dish reached about 90%, the cells were washed twice with PBS, and then treated with trypsin to become single cells. The cells were counted, and 40µl of the cells was inoculated into each well of a 384-well plate (50 cells/well). The plate was equilibrated at 37 °C and 5% carbon dioxide for 10 to 15 minutes. The compounds were injected into the 384-well plate using Echo550, and positive control and negative control (0.1% DMSO) were set up. Each compound was subjected to a 3-fold dilution, resulting in 10 concentration gradients, in duplicate, and the content of DMSO was 0.1%. The 384-well plate was incubated in a cell culture incubator for 10 days.
Then, 40 µl of cell proliferation assay reagent (CTG) was added to the 384-well plate, and the plate was shaken to mix well. Then, the 384-well plate was incubated at 37 °C and 5% carbon dioxide in the dark for 30 minutes. The data were read using the Envision multifunctional microplate reader. […] According to the different drug concentrations and their corresponding inhibition rates, the GI50 curve was drawn using GraphPad 8.0 software. The data were analyzed, and the final IC50 value was obtained.
In addition, the compounds of the present disclosure also have selectivity for mutant HCT116 cells. […] The selectivity data of representative compounds are shown in Table 2: Table 2 Selectivity data of representative compounds

[2] = 240 h, HCT116^MTAP Deletion cells, 10 days incubation, CTG readout, read-out: HCT116^MTAP Deletion GI50
[3] = HCT116^MTAP Deletion cells, 10 days incubation, CTG readout, read-out: HCT116^MTAP Deletion GI50

SMILES | GI50 [1, 2] [nM] | Selectivity multiple of HCT116^MTAP WT GI50/ HCT116^MTAP Deletion GI50 (HCT116 cells) | also measured
Cc1nn(C)c(C)c1-c1ccc2c(c1)COCC2N(C)C(=O)C(=O)Nc1cnc(N)c2c1cnn2C (stereo not shown) [Example 178] | < 10 | 116 | 
CN(C(=O)C(=O)Nc1cnc(N)c2c1cnn2C)C1COc2cc(-c3cnc(C(F)(F)F)s3)ccc21 (stereo not shown) [Example 164] | 10 to 100 | 337 | 
Cc1ccc(-c2ccc3c(c2)COCC3N(C)C(=O)C(=O)Nc2cnc(N)c3c2cnn3C)cn1 (stereo not shown) [Example 184] | < 10 | 221 | 
CN(C(=O)C(=O)Nc1cnc(N)c2c1cnn2C)C1COCc2cc(-c3cccnc3)ccc21 (stereo not shown) [Example 95] | < 10 | 224 | 
CN(C(=O)C(=O)Nc1cnc(N)c2c1cnn2C)C1COCc2cc(C3=CCC(F)(F)CC3)ccc21 (stereo not shown) [Example 157] | < 10 | 193 | 
CN(C(=O)C(=O)Nc1cnc(N)c2c1cnn2C)C1COCc2cc(Br)ccc21 (stereo not shown) [Example 94] | < 10 | 144 | 
CN(C(=O)C(=O)Nc1cnc(N)c2c1cnn2C)C1COCc2cc(C3CC3)ccc21 (stereo not shown) [Example 104] | 10 to 100 | 144 | 
Cc1cc(-c2ccc3c(c2)OCC3N(C)C(=O)C(=O)Nc2cnc(N)c3c2cnn3C)on1 (stereo not shown) [Example 165] | 10 to 100 | 295 | 
CN(C(=O)C(=O)Nc1cnc(N)c2c1cnn2C)C1COCc2c1ccc(Cl)c2Cl (stereo not shown) [Example 168-P1] |  | 147 | 
CN(C(=O)C(=O)Nc1cnc(N)c2c1cnn2C)C1COCc2cc(-c3ccn(C)n3)ccc21 (stereo not shown) [Example 93] | 10 to 100 | 244 | 
CC(C)C(C)N(Cc1ccc(C(F)(F)F)cn1)C(=O)C(=O)Nc1cnc(N)c2c1cnn2C (stereo not shown) [Example 110-P1] | < 10 | 146 | 
C[C@H](c1ncccn1)N(Cc1ccc(C(F)(F)F)cn1)C(=O)C(=O)Nc1cnc(N)c2cnn(C)c12 [Example 34] |  |  | GI50 [1, 3]: 100 to 1000 nM; GI50 ([1]; read-out: GI50 for HCT116^MTAP Deletion): ≤ 100 nM; selectivity for mutant HCT116 cells (HCT116 cells; HCT116 GI50 versus HCT116^MTAP Deletion GI50, text b891): more than 300 times; GI50 (HCT116 cells; HCT116 cells): 1000 to 10000 nM
CCC(C)N(Cc1ccc(-c2cnn(C)c2)cn1)C(=O)C(=O)Nc1cnc(N)c2c1cnn2C (stereo not shown) [Example 90] | < 10 | 119 | 
Cc1ncccc1-c1ccc2c(c1)COCC2N(C)C(=O)C(=O)Nc1cnc(N)c2c1cnn2C (stereo not shown) [Example 201] | < 10 | 128 | 
CN(C(=O)C(=O)Nc1cnc(N)c2c1cnn2C)C1COc2cc(C(F)(F)F)ccc21 (stereo not shown) [Example 89] |  | 160 | GI50 [1, 3]: < 10 nM
CC1OCC(N(C)C(=O)C(=O)Nc2cnc(N)c3c2cnn3C)c2ccc(C(F)(F)F)cc21 (single isomer, unassigned) [Example 187-P2] |  | 59 | 
CN(C(=O)C(=O)Nc1cnc(N)c2c1cnn2C)C1COCc2c1ccc(C(F)(F)F)c2F (stereo not shown) [Example 195] | < 10 | 226 | 
CN(C(=O)C(=O)Nc1cnc(N)c2c1cnn2C)C1COc2cc(Cl)c(Cl)cc21 (stereo not shown) [Example 186-P1] |  | 210 | 
CC1OCC(N(C)C(=O)C(=O)Nc2cnc(N)c3c2cnn3C)c2ccc(C(F)(F)F)cc21 (single isomer, unassigned) [Example 187-P1] |  | 78 | 
CN(C(=O)C(=O)Nc1cnc(N)c2c1cnn2C)C1COCc2cc(C#N)ccc21 (stereo not shown) [Example 111] | < 10 | 354 | 
Cc1ncc(-c2ccc3c(c2)COCC3N(C)C(=O)C(=O)Nc2cnc(N)c3c2cnn3C)s1 (stereo not shown) [Example 181-P1] |  | 247 | 
Cn1ncc2c(NC(=O)C(=O)N(C3CC3)C3COCc4cc(C(F)(F)F)ccc43)cnc(N)c21 (stereo not shown) [Example 98] | < 10 | 106 | 
CN(C(=O)C(=O)Nc1cnc(N)c2c1cnn2C)C1COCc2cc(C3=CCOCC3)ccc21 (stereo not shown) [Example 100] |  | 179 | GI50 [1, 3]: < 10 nM
CCC(C)N(Cc1ccc(OC(F)(F)F)cn1)C(=O)C(=O)Nc1cnc(N)c2c1cnn2C (stereo not shown) [Example 113] | < 10 | 125 | 
CN(C(=O)C(=O)Nc1cnc(N)c2c1cnn2C)C1COCc2cc(Cl)c(Cl)cc21 (single isomer, unassigned) [Example 163-P1] |  | 94 | 

SMILES | GI50 [1, 2] [nM] | Selectivity multiple of HCT116^MTAP WT GI50/ HCT116^MTAP Deletion GI50 (HCT116 cells) | also measured
Cc1c(-c2ccc3c(c2)COCC3N(C)C(=O)C(=O)Nc2cnc(N)c3c2cnn3C)cnn1C (stereo not shown) [Example 150] | < 10 |  | 
C[C@H](C1CC1)N(Cc1ccc(C(F)(F)F)cn1)C(=O)C(=O)Nc1cnc(N)c2c1cnn2C [Example 51] | 10 to 100 |  | 
Cc1nn(C)cc1-c1ccc2c(c1)COCC2N(C)C(=O)C(=O)Nc1cnc(N)c2c1cnn2C (stereo not shown) [Example 200] | < 10 |  | 
CCC(C)N(Cc1cccc(C(F)(F)F)n1)C(=O)C(=O)Nc1cnc(N)c(C)c1 (stereo not shown) [Example 87] | 100 to 1000 |  | 
CN(C(=O)C(=O)Nc1cnc(N)c2c1cnn2C)C1COc2c1ccc(C(F)(F)F)c2F (stereo not shown) [Example 208] | 10 to 100 |  | 
Cc1cc(NC(=O)C(=O)N(Cc2ccc(C(F)(F)F)cn2)CC2CC(F)(F)C2)cnc1N [Example 70] | 100 to 1000 |  | 
CN(C(=O)C(=O)Nc1cnc(N)c2c1cnn2C)C1COCc2cc(-c3ccnn3C)ccc21 (stereo not shown) [Example 137] |  |  | GI50 [1, 3]: < 10 nM
CCOc1ccc(CN(C(=O)C(=O)Nc2cnc(N)c(C)c2)[C@H](C)c2ncccn2)nn1 [Example 35] |  |  | GI50 [1, 3]: 10 to 100 nM
CN(C(=O)C(=O)Nc1cnc(N)c2c1cnn2C)C1COCc2cc(-c3ccnn3C3CC3)ccc21 (stereo not shown) [Example 232] | < 10 |  | 
Cc1cc(NC(=O)C(=O)N(Cc2ccc(C(F)(F)F)cn2)C2CC2)cnc1N [Example 12] |  |  | GI50 [1, 3]: 100 to 1000 nM
Cn1ncc2c(NC(=O)C(=O)N(C3CC3)C3COc4cc(C(F)(F)F)ccc43)cnc(N)c21 (stereo not shown) [Example 118] | < 10 |  | 
CCC(C)N(Cc1nc(C)cs1)C(=O)C(=O)Nc1cnc(N)c(C)c1 (stereo not shown) [Example 76] | 100 to 1000 |  | 
Cc1cc(NC(=O)C(=O)N(Cc2ccc(C(F)(F)F)cn2)C2CCC2)cnc1N [Example 13] |  |  | GI50 [1, 3]: 100 to 1000 nM
CCC(C)N(Cc1ccc(C#N)c(Cl)n1)C(=O)C(=O)Nc1cnc(N)c(C)c1 (stereo not shown) [Example 77] | 10 to 100 |  | 
CN(C(=O)C(=O)Nc1cnc(N)c2c1cnn2C)C1COc2cc(Cl)c(Cl)cc21 (racemic) [compound 186] |  |  | GI50 [1, 3]: < 10 nM
Cc1nc(-c2ccc3c(c2)OCC3N(C)C(=O)C(=O)Nc2cnc(N)c3c2cnn3C)no1 (stereo not shown) [Example 229] | 10 to 100 |  | 
Cc1cc(NC(=O)C(=O)N(Cc2ccc(C(F)(F)F)cn2)C2CCCOC2)cnc1N (single isomer, unassigned) [Example 14-P1] |  |  | GI50 [1, 3]: 100 to 1000 nM
CN(C(=O)C(=O)Nc1cnc(N)c2c1cnn2C)C1COCc2nc(-c3ccnn3C3CC3)ccc21 (stereo not shown) [Example 220] | < 10 |  | 
CC(C)Oc1ccc2c(c1)COCC2N(C)C(=O)C(=O)Nc1cnc(N)c2c1cnn2C (stereo not shown) [Example 128] | 10 to 100 |  | 
CN(C(=O)C(=O)Nc1cnc(N)c2c1cnn2C)C1COc2cc(C3=CCOCC3)ccc21 (single isomer, unassigned) [Example 153-P2] |  |  | GI50 [1, 3]: 100 to 1000 nM
CN(C(=O)C(=O)Nc1cnc(N)c2c1cnn2C)C1COCc2nc(C(F)(F)F)ccc21 (single isomer, unassigned) [Example 152-P1] |  |  | GI50 [1, 3]: 100 to 1000 nM
CN(C(=O)C(=O)Nc1cnc(N)c2c1cnn2C)C1CCc2cc(C(F)(F)F)ccc21 (stereo not shown) [Example 136] | 10 to 100 |  | 
C[C@H](c1ncccn1)N(Cc1ccc(C(F)(F)F)cn1)C(=O)C(=O)Nc1cnc(N)c(Cl)c1 [Example 23] |  |  | GI50 [1, 3]: 1000 to 10000 nM
Cc1cc(NC(=O)C(=O)N(CC(C)C)c2cccc(C(F)(F)F)c2)cnc1N [Example 107] | > 10000 |  | 
